Data from patent US20090054507A1, “CONTROL OF MALIGNANT CELLS BY KINASE INHIBITION” (CLEVELAND STATE UNIVERSITY, priority 2006, published 2009).

Columns and labels:
Type in all cases: cell-based, human
MEG-01 cells [1] = test: Viability (proliferation) assay, Trypan blue exclusion, MEG-01
MEG-01 cells [2] = test: Thrombocytopoiesis / proplatelet formation by microscopy
Procedure: Light microscopy (phase contrast) and DAPI fluorescence microscopy. High quality pictures and live imaging were obtained at Cleveland Clinic Imaging Core (Cleveland, Ohio). DAPI staining of cultured MEG-01 cells was performed with fresh cells. For live imaging (observing a single cell for a 24 hour period of time) of the thrombocytopoiesis process, MEG-01 suspension cells were made adherent by using Fibronectin (FN) coated culture dishes. FN was used, at 5 μg/cm^2 and incubated at 37° C. for 1 h, as recommended by the supplier (BD Biosciences, Bedford, Mass., USA).
Scanning electron microscopy (SEM). Cell preparation and pictures were performed at the Microscopy Core Facility (Cleveland Clinic). Cells were grown for 4 days in the presence of 10 μM DMAT and then collected by differential centrifugation. Cells were fixed in glutaraldehyde and then further processed at the Core. The clot was prepared with platelets collected from MEG-01 cultures treated with 10 μM DMAT. Human thrombin 0.5 U/ml for 15 minutes was used to activate them.

MEG-01 cells [3] = test: Annexin V-FITC and PI apoptosis assay, MEG-01
Procedure: Flow cytometric analysis. Cells were analyzed using a FACSCalibur flow cytofluorometer (Becton-Dickinson), with CellQuestPro ver. 3.3 software. The data was further analyzed with FlowJo ver. 6.2, and WinMDI 2.8 software. Proper gating was performed to characterize each cell population (MEG-01 cells and platelets). The population that corresponds to platelets (small, granulated particles), is PI negative because thrombocytes are anucleated cells (only the viable cells were considered) and were distinguished by their capacity to become activated, undergoing shape change in response to agonist and to show phosphatidylserine (PS) exposure when activated. Platelets were further separated from the megakaryocytic cells, by differential centrifugation, considering the size difference between these cell populations (1-5 μm for platelets and 35-150 μm for megakaryocytic cell line MEG-01) and analyzed separately. Voltage and channels settings were adjusted accordingly. Analyzed values were obtained with WinMDI ver. 2.8.
Apoptosis Assays using Flow Cytometry with Annexin V-FITC and propidium iodide (PI). For induction of typical apoptosis, cells were grown in the presence of 1 μM staurosporine (Sigma-Aldrich) for 6 hours. The staurosporine treated cells were stained as follows: control 1 with PI, control 2 with Annexin V-FITC and control 3 both PI and Annexin V-FITC in order to have the brightest controls for compensation and proper collection of the flow cytometry data. Cell necrosis was induced by heat shock (65° C. for 30 minutes). The stained control, both PI and Annexin V-FITC labeled, was then used as the reference in establishing the level of apoptosis induced by the treatments. Data was collected on logarithmic modes, two-colors. Annexin V-FITC corresponds to FL1 H channel, and PI to FL3H or FL2H channels.
Annexin V-FITC and PI apoptosis assay staining protocol. Apoptosis Annexin V-FITC and PI kit from BD Biosciences, CA, USA, was used. 10^5-10^6 cells were stained with 50 μg/ml PI and with 0.5 μg/ml FITC-labeled Annexin V using the staining protocol provided by the supplier. Samples were then analyzed immediately by flow cytometry.

CCCCCCCCCCCCCC(=O)O[C@@H]1[C@@H](C)[C@@]2(O)[C@@H](C=C(CO)C[C@]3(O)C(=O)C(C)=C[C@@H]23)[C@@H]2C(C)(C)[C@]12OC(C)=O [PMA, Phorbol 12-myristate 13-acetate, reference compound]
proliferation of MEG-01 cells (Trypan Blue exclusion) (MEG-01 cells [1]; 5 nM PMA, five days of treatment): a decrease in proliferation was observed

Brc1c(Br)c(Br)c2[nH]nnc2c1Br [TBB, 4,5,6,7-tetrabromobenzotriazole]
thrombocytopoiesis (MEG-01 cells [2]): induced thrombocytopoiesis | cytotoxicity (necrosis) in MEG-01 cells (MEG-01 cells [3]): without being cytotoxic | dose and time dependence of induced apoptosis and phenotype change (MEG-01 cells [3]; 24 to 96 hours): dose and time dependent | cell number / proliferation rate of MEG-01 cells (MEG-01 cells [1]; 100 μM TBB, 4 days of treatment): maintained a steady number of cells
